The record followed here is ChEMBL document CHEMBL4219148, “Discovery of a highly potent orally bioavailable imidazo-[1, 2-a]pyrazine Aurora inhibitor” (Bioorg Med Chem Lett, 2018).

pEC50, pIC50, pKd: −log10 of the molar value.

Data set [1] addresses Glycogen synthase kinase-3 beta (Homo sapiens, UniProt P49841). As to the kind of experiment: Inhibition of GSK3b (unknown origin).
In a further data set the target is T1, Ephrin type-B receptor 4 (Homo sapiens, UniProt P54760).
T1 sequence (P54760 whole entry): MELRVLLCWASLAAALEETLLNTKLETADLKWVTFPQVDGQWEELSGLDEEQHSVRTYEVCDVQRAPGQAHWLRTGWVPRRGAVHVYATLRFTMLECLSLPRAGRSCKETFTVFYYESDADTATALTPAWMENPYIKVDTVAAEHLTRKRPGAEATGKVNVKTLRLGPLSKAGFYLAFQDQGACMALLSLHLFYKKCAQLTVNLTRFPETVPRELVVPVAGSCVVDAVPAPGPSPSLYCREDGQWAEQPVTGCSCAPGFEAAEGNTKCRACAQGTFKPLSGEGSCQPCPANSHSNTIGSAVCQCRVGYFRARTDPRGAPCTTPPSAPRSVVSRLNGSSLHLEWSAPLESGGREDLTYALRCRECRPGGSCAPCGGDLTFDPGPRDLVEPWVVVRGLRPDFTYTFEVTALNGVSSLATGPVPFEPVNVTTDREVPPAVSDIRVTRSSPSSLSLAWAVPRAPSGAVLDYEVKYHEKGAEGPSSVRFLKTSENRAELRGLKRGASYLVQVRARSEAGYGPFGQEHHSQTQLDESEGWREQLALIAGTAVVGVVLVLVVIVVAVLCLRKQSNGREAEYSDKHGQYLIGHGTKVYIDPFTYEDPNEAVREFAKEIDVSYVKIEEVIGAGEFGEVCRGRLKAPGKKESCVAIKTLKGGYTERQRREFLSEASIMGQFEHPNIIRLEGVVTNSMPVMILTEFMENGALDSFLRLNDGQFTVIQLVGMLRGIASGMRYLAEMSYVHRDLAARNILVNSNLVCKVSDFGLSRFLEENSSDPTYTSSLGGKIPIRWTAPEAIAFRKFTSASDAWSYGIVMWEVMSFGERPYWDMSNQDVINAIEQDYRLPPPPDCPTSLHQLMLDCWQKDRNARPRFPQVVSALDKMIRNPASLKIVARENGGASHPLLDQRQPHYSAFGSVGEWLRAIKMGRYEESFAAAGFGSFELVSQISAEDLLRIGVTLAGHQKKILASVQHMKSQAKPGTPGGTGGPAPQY
As to the kind of experiment: Inhibition of EPHB4 (unknown origin).

Data set [2] in a line: Volume of distribution in mouse at 3 mg/kg, iv. The class given is ADME, organism-based. The settings on record: in vivo.
The target of data set [3] is T2, Aurora kinase B (Homo sapiens, UniProt Q96GD4). As to the kind of experiment: Inhibition of Aurora B (unknown origin) using Tamra-PKAtide as substrate by fluorescence polarization assay.
Data set [4] concerns the target Tyrosine-protein kinase Lck (Homo sapiens, UniProt P06239). As to the kind of experiment: Inhibition of LCK (unknown origin).
The next data set addresses T3, Aurora kinase A (Homo sapiens, UniProt O14965).
T3 sequence (O14965 whole entry): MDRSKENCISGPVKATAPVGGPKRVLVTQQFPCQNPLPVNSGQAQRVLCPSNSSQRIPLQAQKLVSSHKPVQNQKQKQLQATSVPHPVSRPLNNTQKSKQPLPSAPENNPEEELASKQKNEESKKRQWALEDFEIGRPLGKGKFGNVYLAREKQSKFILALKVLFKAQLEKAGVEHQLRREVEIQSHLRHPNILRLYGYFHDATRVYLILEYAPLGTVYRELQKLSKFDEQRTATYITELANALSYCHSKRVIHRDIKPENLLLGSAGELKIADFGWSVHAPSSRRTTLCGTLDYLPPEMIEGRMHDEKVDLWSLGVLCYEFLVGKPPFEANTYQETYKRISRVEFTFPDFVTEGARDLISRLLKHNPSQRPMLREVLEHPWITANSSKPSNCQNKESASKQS
As to the kind of experiment: Inhibition of Aurora A (unknown origin) using Tamra-PKAtide as substrate by fluorescence polarization assay. (In fluorescence polarisation assays a small probe gives low polarisation when free and higher when bound to something large.)

Data set [5] can be described thus: Half life in dog at 1 mg/kg, iv. The note with it: in vivo. The class given is ADME, organism-based, Canis lupus familiaris.
Data set [6] can be described thus: AUC (0 to 48 hrs) in monkey at 1 mg/kg, iv. More on the design: time < 48 hr, dose 1 mg/kg, route intravenous. The settings on record: rhesus monkey, in vivo. The class given is ADME, organism-based, Macaca mulatta.
Data set [7] addresses T4, Serine/threonine-protein kinase 3 (Homo sapiens, UniProt Q13188).
T4 sequence (Q13188 whole entry): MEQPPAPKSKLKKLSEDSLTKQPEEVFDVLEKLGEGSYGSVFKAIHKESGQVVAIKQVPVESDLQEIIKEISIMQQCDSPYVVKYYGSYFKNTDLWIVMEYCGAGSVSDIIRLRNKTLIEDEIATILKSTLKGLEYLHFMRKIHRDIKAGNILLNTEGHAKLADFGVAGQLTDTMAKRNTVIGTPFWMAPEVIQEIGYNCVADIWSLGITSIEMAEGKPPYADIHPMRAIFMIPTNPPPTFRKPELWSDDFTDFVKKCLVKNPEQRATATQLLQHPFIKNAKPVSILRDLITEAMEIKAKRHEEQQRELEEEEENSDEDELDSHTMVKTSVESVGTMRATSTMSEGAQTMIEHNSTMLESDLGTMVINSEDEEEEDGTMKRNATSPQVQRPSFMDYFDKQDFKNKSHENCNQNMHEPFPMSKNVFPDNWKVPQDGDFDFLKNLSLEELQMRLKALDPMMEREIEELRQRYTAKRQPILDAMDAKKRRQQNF
As to the kind of experiment: Inhibition of MST2 (unknown origin).

Data set [8] addresses Epidermal growth factor receptor (Homo sapiens, UniProt P00533). As to the kind of experiment: Inhibition of EGFR (unknown origin).
A short description of data set [9]: AUC (0 to 48 hrs) in dog at 3 mg/kg, po. The class given is ADME, organism-based, Canis lupus familiaris. The settings on record: in vivo. More on the design: dose 3 mg/kg, time < 48 hr, route oral.
Data set [10] is described as follows: Oral bioavailability in mouse at 50 mg/kg. The class given is ADME, organism-based. The settings on record: in vivo.
In a further data set the target is Cytochrome P450 2D6 (Homo sapiens, UniProt P10635). As to the kind of experiment: Inhibition of CYP2D6 in human liver microsomes. In kind it is ADME. (In general: Microsomes from liver hold many membrane-bound enzymes, among them those of drug oxidation.)
Data set [11] is described as follows: Oral bioavailability in dog at 3 mg/kg. In kind it is ADME, organism-based, Canis lupus familiaris. The note with it: in vivo.
In data set [12] the target is Ribosomal protein S6 kinase alpha-3 (Homo sapiens, UniProt P51812). As to the kind of experiment: Inhibition of RSK2 (unknown origin).
For data set [13], the target named is Casein kinase I isoform delta (Homo sapiens, UniProt P48730). As to the kind of experiment: Inhibition of CSNK1D (unknown origin).
The nature of data set [14]: Half life in monkey at 1 mg/kg, iv. In kind it is ADME, organism-based, Macaca mulatta. The note with it: rhesus monkey, in vivo.
Data set [15] addresses T2, Aurora kinase B. As to the kind of experiment: Inhibition of Aurora B in human HCT116 cells assessed as reduction in phosphorylation of Histone H3 at Ser10 residue incubated for 1 hr by Hoechst 33342 dye-based immunofluorescence microscopic method. In kind it is cell-based.
Data set [16] addresses Insulin-like growth factor 1 receptor (Homo sapiens, UniProt P08069). As to the kind of experiment: Inhibition of IGF1R (unknown origin).
Data set [17] deals with Rho-associated protein kinase 2 (Homo sapiens, UniProt O75116). As to the kind of experiment: Inhibition of ROCK2 (unknown origin).
A short description of data set [18]: Apparent permeability from apical to basolateral side in human intestinal Caco2 cells. In kind it is ADME, cell-based. The settings on record: Caco-2.
Data set [19] concerns the target Hepatocyte growth factor receptor (Homo sapiens, UniProt P08581). As to the kind of experiment: Inhibition of MET (unknown origin).
Data set [20] is described as follows: Clearance in dog at 1 mg/kg, iv. The class given is ADME, organism-based, Canis lupus familiaris. The settings on record: in vivo.
The target of data set [21] is T2, Aurora kinase B. As to the kind of experiment: Binding affinity to Aurora B (unknown origin) after 45 mins by fluorescence-based thermal stability shift assay.
Data set [22] is described as follows: Protein binding in human plasma. In kind it is ADME, cell-free. The settings on record: read-out: PPB (converted).

Chain of Casein kinase I isoform delta (P48730 whole entry, canonical isoform): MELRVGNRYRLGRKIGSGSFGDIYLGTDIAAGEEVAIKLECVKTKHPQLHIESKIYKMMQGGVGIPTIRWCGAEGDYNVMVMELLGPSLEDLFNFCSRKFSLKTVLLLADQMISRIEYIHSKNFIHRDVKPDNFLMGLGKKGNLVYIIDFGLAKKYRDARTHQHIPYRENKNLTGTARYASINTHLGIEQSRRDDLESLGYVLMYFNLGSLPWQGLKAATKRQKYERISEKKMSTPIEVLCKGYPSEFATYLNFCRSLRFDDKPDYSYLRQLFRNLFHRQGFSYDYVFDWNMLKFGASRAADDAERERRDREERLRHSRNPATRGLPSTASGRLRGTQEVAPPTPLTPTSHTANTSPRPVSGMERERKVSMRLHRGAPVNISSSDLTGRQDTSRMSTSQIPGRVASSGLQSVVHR
Chain of Epidermal growth factor receptor (P00533 whole entry): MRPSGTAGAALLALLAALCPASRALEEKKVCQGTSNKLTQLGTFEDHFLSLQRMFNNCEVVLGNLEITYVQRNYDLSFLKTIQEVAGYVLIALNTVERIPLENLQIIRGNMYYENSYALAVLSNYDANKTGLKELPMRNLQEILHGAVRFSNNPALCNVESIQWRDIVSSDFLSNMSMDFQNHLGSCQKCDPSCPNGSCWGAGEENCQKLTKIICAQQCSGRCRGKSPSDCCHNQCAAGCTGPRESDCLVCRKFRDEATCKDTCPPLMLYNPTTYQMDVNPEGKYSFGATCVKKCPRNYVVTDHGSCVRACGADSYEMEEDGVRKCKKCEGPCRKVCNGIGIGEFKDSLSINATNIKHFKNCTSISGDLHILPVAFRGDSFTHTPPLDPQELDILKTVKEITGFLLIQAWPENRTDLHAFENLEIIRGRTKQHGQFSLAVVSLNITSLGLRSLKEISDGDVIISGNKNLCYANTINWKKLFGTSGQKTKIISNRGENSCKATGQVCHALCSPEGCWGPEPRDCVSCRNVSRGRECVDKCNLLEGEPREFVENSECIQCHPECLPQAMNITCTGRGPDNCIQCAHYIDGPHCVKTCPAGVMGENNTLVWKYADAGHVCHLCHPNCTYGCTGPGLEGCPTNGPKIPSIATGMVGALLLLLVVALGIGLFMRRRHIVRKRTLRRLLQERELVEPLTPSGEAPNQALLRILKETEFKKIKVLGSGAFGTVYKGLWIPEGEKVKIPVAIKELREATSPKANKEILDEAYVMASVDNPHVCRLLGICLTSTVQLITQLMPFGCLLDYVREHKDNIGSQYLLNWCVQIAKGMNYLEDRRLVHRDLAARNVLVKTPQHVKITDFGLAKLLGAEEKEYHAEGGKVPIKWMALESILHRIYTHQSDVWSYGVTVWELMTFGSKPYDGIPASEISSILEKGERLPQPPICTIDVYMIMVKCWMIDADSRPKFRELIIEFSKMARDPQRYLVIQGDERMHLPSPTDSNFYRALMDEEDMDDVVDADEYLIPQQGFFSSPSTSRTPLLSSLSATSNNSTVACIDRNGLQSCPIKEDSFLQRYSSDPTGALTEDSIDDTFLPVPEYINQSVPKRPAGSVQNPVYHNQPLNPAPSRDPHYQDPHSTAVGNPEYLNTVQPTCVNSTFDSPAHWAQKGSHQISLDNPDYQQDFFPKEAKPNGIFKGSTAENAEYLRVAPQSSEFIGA
Chain of Glycogen synthase kinase-3 beta (P49841 whole entry): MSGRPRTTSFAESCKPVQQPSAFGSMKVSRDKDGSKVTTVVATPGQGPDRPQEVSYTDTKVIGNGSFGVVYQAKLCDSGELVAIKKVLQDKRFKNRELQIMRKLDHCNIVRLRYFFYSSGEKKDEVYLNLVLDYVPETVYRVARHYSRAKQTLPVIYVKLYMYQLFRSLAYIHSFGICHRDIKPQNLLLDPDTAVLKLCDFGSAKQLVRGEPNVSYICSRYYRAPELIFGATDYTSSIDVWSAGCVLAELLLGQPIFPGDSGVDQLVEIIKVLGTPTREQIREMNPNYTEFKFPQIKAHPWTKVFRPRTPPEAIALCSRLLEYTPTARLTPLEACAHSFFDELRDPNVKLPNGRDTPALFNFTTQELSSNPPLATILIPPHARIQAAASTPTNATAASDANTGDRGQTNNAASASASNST
T2 sequence (Q96GD4 whole entry): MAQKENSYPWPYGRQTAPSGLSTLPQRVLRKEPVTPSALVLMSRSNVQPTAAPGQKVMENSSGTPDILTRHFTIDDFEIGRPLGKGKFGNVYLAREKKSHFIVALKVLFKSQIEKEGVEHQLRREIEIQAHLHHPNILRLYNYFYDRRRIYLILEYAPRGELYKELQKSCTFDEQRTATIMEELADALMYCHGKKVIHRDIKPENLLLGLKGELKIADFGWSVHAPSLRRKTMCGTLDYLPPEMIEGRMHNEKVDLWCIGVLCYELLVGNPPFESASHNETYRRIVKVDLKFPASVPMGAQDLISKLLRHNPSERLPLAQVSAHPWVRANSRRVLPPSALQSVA
Chain of Hepatocyte growth factor receptor (P08581 whole entry): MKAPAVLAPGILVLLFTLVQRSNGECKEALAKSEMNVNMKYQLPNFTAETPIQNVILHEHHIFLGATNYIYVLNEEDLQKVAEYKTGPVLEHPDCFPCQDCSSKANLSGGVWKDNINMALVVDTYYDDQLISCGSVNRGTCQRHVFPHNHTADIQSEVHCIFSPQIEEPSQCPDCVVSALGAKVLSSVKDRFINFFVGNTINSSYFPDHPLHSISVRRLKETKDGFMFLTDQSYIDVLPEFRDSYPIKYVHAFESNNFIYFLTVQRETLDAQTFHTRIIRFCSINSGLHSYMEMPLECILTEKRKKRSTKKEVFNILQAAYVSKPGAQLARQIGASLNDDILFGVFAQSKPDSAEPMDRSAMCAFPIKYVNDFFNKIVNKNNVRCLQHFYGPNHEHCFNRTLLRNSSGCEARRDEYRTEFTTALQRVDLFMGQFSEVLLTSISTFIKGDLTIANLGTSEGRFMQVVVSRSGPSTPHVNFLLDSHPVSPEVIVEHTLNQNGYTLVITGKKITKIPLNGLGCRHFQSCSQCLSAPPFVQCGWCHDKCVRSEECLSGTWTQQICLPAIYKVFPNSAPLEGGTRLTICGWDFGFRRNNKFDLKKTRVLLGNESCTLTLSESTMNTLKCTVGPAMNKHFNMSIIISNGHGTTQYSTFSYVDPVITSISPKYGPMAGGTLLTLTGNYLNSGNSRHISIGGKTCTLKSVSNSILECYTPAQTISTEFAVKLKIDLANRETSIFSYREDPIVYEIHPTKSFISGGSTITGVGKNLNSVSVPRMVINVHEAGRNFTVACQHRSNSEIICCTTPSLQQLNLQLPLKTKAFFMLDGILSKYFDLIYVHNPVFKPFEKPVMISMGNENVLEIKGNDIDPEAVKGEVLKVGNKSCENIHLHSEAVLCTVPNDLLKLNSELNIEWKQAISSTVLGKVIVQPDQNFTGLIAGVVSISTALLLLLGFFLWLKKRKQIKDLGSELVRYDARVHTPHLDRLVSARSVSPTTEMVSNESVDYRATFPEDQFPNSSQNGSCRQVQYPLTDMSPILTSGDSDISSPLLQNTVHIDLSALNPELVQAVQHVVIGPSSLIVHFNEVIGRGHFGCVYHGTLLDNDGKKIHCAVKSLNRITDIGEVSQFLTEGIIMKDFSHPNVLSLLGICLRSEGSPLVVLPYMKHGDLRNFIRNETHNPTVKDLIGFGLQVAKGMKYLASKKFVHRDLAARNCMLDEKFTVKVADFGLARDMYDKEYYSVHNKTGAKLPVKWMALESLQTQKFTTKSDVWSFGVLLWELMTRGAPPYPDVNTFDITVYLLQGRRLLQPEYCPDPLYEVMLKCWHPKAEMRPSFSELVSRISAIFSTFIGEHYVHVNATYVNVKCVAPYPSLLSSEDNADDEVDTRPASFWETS
Chain of Tyrosine-protein kinase Lck (P06239 whole entry): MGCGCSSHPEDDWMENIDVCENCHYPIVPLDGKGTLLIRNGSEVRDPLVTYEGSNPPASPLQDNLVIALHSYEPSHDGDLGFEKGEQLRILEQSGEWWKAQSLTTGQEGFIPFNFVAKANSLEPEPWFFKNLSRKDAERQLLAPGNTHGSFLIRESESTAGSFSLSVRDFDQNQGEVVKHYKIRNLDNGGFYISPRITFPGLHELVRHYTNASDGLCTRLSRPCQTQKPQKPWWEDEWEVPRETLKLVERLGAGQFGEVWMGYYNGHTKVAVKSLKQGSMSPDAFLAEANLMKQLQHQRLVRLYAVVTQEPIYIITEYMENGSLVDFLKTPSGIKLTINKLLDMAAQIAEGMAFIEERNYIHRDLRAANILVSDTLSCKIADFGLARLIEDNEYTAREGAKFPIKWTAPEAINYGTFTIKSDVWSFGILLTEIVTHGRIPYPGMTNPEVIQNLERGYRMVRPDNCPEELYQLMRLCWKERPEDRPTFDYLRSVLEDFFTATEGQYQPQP
Chain of Ribosomal protein S6 kinase alpha-3 (P51812 whole entry, canonical isoform): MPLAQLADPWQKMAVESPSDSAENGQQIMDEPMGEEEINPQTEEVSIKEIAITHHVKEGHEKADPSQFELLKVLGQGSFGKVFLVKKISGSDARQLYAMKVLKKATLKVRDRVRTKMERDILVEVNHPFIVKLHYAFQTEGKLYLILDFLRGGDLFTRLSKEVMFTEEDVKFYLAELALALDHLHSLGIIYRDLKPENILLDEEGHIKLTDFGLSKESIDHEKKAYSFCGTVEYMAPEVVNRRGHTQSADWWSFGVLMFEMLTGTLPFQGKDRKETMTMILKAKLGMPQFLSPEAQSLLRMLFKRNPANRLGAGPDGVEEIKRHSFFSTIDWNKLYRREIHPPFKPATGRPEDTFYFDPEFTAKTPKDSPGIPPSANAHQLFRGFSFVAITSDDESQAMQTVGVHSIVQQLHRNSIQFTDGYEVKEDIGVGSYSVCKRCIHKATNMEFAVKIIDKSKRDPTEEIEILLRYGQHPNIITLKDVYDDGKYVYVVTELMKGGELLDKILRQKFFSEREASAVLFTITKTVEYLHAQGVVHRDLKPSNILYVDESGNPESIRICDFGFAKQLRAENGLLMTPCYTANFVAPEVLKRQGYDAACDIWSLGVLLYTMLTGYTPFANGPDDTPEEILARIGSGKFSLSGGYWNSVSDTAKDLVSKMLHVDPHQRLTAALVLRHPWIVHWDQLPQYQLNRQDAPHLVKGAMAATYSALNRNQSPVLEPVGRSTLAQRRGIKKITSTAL

On to `Cc1cn2c(-c3cn[nH]c3)cnc2c(Nc2cc(Cc3ccccn3)ns2)n1`, for which the pIC50 was under 6.30 in data set [1]; 6.41 at Ephrin type-B receptor 4; over 7.89 on Aurora kinase B [3]; 6.57 in data set [4]; over 8.40 at Aurora kinase A; under 6.30 in [7]. In addition, the pIC50 in data set [8] is under 6.30; at Cytochrome P450 2D6 it was under 4.70; in [12], 6.59; in data set [13] it was under 6.30; in data set [16] it was under 6.30; in [17], under 6.30. Further, the negative-log IC50 (pIC50) in data set [19] was under 6.30. This molecule yielded a Vd in [2] of 1.6 L/kg. In addition, the half-life in data set [5] is 0.8 h; in data set [14], 0.5 h. Further, the AUC(0-t) at 48 h in data set [6] is 1.7 µM·h; in [9], 4.1 µM·h. Further, the bioavailability came to 77% in data set [10] and 15% in data set [11]. In addition, the negative-log EC50 (pEC50) on Aurora kinase B [15] is 6.93. In addition, the Papp A→B in data set [18] amounted to 2.8 ×10⁻⁶ cm/s. For the same molecule, the clearance in [20] was 5 mL/min/kg. The pKd at Aurora kinase B [21] is 10.00. The fraction unbound in data set [22] was 0.009.
Regarding `CCN(CCO)Cc1cc(Nc2nc(C)cn3c(-c4cn[nH]c4)cnc23)sn1`, the pIC50 in data set [1] is under 6.30; against Ephrin type-B receptor 4, 7.00; against Aurora kinase B [3] it was over 7.89; in data set [4], over 9.00; on Aurora kinase A it was over 8.40; in [7] it was under 6.30. Further, the pIC50 in [8] is under 6.30; in data set [12] it was 6.74; in data set [13] it was under 6.30; in [16], under 6.30; in data set [17], under 6.30; in data set [19], under 6.30. For the same molecule, the pEC50 on Aurora kinase B [15] was 7.62. In addition, in data set [18], the Papp A→B turned out to be 2.1 ×10⁻⁶ cm/s.
Take `Cc1cn2c(-c3cn[nH]c3)cnc2c(Nc2cc(C(NC(C)(C)C)c3ccccn3)ns2)n1` (single isomer, unassigned; (+)): the pIC50 in [1] is under 6.00; against Ephrin type-B receptor 4, 7.42; at Aurora kinase B [3] it was at least 7.89; in data set [4], 7.21; against Aurora kinase A it was at least 8.40; in data set [7] it was under 6.00. Also, the pIC50 was under 6.00 in [8]; 4.94 on Cytochrome P450 2D6; under 6.00 in [13]; under 6.00 in [16]; under 6.00 in data set [17]; under 6.00 in data set [19]. Besides, the volume of distribution (Vd) in [2] was found to be 5.3 L/kg. Moreover, the figures for the half-life in data set [5] and in data set [14] were 4.6 h and 2.2 h, respectively. Further, the values for the area under the curve AUC(0-t) at 48 h in [6] and in data set [9] were 5 µM·h and 10.1 µM·h, respectively. Moreover, the figures for the bioavailability in data set [10] and in data set [11] were 64% and 86%, respectively. For the same molecule, the negative logarithm of the EC50 (pEC50) on Aurora kinase B [15] is over 7.80. Further, the apical-to-basolateral permeability (Papp A→B) in [18] stood at 2.4 ×10⁻⁶ cm/s. The clearance in [20] worked out at 9.4 mL/min/kg. Moreover, the negative logarithm of the Kd (pKd) at Aurora kinase B [21] was 11.00. Further, in data set [22], the fraction unbound is 0.012.

As a reminder, the pIC50 is −log10 of the IC50, conventionally taken in molar units. As usually defined, the Vd is a proportionality between amount in the body and measured concentration, not a real space. Broadly, the half-life is how long it takes for the measured level to halve. What is called AUC(0-t) is exposure summed from dosing to a finite time, without extrapolation to infinity. The bioavailability is the share of a dose that reaches the circulation, judged against a reference dose that is usually intravenous. In general, pEC50 refers to the EC50 on a negative log10 scale, so that one unit is a factor of ten. One may read the Papp A→B as the apparent permeability from the apical to the basolateral side of a cell layer. The term clearance denotes the volume of plasma or blood freed of the substance per unit of time. For orientation: pKd means the Kd on a negative log10 scale, so that one unit is a factor of ten.
